pIC50: −log10 of the molar value.
What follows are compounds tested against GCN2 (Homo sapiens (Human), UniProt Q9P2K8) (assay: TR-FRET biochemical assay for inhibition of GCN2). Settings: not given.
Chain of GCN2 (Q9P2K8 whole entry): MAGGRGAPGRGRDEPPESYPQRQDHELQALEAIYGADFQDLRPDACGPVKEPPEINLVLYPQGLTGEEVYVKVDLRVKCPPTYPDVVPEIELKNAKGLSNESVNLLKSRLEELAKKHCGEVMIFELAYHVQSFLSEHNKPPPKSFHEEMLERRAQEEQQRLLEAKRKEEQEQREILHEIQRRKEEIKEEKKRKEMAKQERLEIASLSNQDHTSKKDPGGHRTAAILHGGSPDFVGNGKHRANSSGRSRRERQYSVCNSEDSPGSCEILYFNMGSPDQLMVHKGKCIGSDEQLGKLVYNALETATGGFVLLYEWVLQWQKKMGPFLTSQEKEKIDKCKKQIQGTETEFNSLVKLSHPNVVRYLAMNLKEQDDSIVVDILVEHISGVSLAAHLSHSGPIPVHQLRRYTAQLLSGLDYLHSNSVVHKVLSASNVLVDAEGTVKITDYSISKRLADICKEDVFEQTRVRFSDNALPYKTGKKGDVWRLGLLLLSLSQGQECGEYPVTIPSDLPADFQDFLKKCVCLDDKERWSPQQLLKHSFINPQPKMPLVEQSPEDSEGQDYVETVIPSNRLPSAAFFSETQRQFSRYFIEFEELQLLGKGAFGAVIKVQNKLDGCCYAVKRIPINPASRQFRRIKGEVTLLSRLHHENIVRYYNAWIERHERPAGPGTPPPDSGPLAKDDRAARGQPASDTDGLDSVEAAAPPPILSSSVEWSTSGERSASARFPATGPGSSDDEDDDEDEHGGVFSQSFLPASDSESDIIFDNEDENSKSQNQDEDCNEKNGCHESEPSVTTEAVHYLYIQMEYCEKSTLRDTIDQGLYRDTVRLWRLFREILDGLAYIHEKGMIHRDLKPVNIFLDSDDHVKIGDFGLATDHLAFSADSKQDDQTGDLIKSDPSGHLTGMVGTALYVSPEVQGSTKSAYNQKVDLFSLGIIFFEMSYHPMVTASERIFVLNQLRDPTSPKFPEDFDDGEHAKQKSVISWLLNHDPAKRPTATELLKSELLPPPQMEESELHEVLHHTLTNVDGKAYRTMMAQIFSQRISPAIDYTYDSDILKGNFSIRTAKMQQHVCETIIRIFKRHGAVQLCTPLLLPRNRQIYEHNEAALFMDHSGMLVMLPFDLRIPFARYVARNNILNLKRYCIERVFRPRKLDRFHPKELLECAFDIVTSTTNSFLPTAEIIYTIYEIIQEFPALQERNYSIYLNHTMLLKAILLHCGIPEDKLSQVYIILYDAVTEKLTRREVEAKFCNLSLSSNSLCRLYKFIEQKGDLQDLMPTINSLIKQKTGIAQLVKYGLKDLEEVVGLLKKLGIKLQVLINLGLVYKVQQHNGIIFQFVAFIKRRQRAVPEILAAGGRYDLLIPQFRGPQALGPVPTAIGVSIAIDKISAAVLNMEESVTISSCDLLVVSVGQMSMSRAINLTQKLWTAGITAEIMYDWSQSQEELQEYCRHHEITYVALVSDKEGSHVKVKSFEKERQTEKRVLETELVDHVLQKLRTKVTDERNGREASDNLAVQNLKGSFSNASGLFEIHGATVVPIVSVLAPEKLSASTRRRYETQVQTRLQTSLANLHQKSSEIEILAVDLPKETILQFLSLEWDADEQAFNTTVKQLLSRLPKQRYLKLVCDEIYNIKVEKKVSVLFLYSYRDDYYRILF
For `CNC(=O)c1ncn2cc(-c3c(F)ccc(NS(=O)(=O)c4cc(C#N)cnc4OC)c3F)ncc12` [Compound 92, 6-[3-(5-cyano-2-methoxypyridine-3-sulfonamido)-2,6-difluorophenyl]-N-methylimidazo[1,5-a]pyrazine-1-carboxamide], the pIC50 was 6.30 to 7.30. `COc1ncc(Cl)cc1S(=O)(=O)Nc1ccc(F)c(-c2ccc3c(CO)ncn3c2)c1F` [Compound 94, 5-chloro-N-(2,4-difluoro-3-(1-(hydroxymethyl)imidazo[1,5-a]pyridin-6-yl)phenyl)-2-methoxypyridine-3-sulfonamide] was tested, and the pIC50 was 6.00 to 6.30. `CNC(=O)c1ncn2c1CC[C@H](c1c(F)ccc(NS(=O)(=O)c3cc(Cl)cnc3OC)c1F)[C@@H]2C` [Compound 96-1, (5S,6R)-6-[3-(5-chloro-2-methoxypyridine-3-sulfonamido)-2,6-difluorophenyl]-N,5-dimethyl-5H,6H,7H,8H-imidazo[1,5-a]pyridine-1-carboxamide] showed a pIC50 of 6.30 to 7.30. Compound `CNC(=O)c1ncn2c1CC[C@@H](c1c(F)ccc(NS(=O)(=O)c3cc(Cl)cnc3OC)c1F)[C@H]2C` [Compound 96-2, (5R,6S)-6-[3-(5-chloro-2-methoxypyridine-3-sulfonamido)-2,6-difluorophenyl]-N,5-dimethyl-5H,6H,7H,8H-imidazo[1,5-a]pyridine-1-carboxamide] has a pIC50 of 6.00 to 6.30. Compound `COc1ncc(Cl)cc1S(=O)(=O)Nc1ccc(F)c(-c2ccc3c(C(C)O)ncn3c2)c1F` (stereo not shown) [Compound 100, 5-chloro-N-[2,4-difluoro-3-[1-(1-hydroxyethyl)imidazo[1,5-a]pyridin-6-yl]phenyl]-2-methoxypyridine-3-sulfonamide] has a pIC50 of 6.00 to 6.30. `COc1ncc(Cl)cc1S(=O)(=O)Nc1ccc(F)c(-c2ccc3c(-c4nnc(C(F)(F)F)[nH]4)ncn3c2)c1F` [Compound 102, 5-chloro-N-(2,4-difluoro-3-[1-[5-(trifluoromethyl)-4H-1,2,4-triazol-3-yl]imidazo[1,5-a]pyridin-6-yl]phenyl)-2-methoxypyridine-3-sulfonamide] showed a pIC50 of 6.30 to 7.30.

Same assay, conditions: GCN2 2 nM, 100 nM GFP-eIF2a, 150 μM ATP, TR-FRET
`CNC(=O)c1ncn2cc(-c3c(F)ccc(NS(=O)(=O)c4cc(Cl)cnc4C)c3F)ncc12` [Compound 93, 6-[3-(5-chloro-2-methylpyridine-3-sulfonamido)-2,6-difluorophenyl]-N-methylimidazo[1,5-a]pyrazine-1-carboxamide] was tested, and the pIC50 was > 7.30. For `Cc1ncc(Cl)cc1S(=O)(=O)Nc1ccc(F)c(-c2ccc3c(-c4ncc[nH]4)ncn3n2)c1F` [Compound 95, 5-chloro-N-[2,4-difluoro-3-[5-(1H-imidazol-2-yl)imidazo[1,5-b]pyridazin-2-yl]phenyl]-2-methylpyridine-3-sulfonamide], the pIC50 was > 7.30. In the case of `COc1ncc(C#N)cc1S(=O)(=O)Nc1ccc(F)c(-c2ccc3c(-c4ncc[nH]4)ncn3n2)c1F` [Compound 97, 5-cyano-N-[2,4-difluoro-3-[5-(1H-imidazol-2-yl)imidazo[1,5-b]pyridazin-2-yl]phenyl]-2-methoxypyridine-3-sulfonamide], the pIC50 was > 7.30. `COc1ncc(F)cc1S(=O)(=O)Nc1ccc(F)c(-c2ccc3c(-c4ncc[nH]4)ncn3n2)c1F` [Compound 98, N-[2,4-difluoro-3-[5-(1H-imidazol-2-yl)imidazo[1,5-b]pyridazin-2-yl]phenyl]-5-fluoro-2-methoxypyridine-3-sulfonamide] was tested, and the pIC50 was > 7.30. `COc1ncc(Cl)cc1S(=O)(=O)Nc1ccc(F)c(-c2ccc3c(-c4ccno4)ncn3c2)c1F` [Compound 99, 5-chloro-N-(2,4-difluoro-3-(1-(isoxazol-5-yl)imidazo[1,5-a]pyridin-6-yl)phenyl)-2-methoxypyridine-3-sulfonamide] was tested, and the pIC50 was > 7.30. With `CNC(=O)c1ncn2cc(-c3c(F)ccc(NS(=O)(=O)c4cc(Cl)cnc4OC)c3Cl)ccc12` [Compound 101, 6-(2-chloro-3-((5-chloro-2-methoxypyridine)-3-sulfonamido)-6-fluorophenyl)-N-methylimidazo[1,5-a]pyridine-1-carboxamide] the pIC50 was > 7.30. For `COc1ncc(Cl)cc1S(=O)(=O)Nc1ccc(F)c(-c2ccc3c(-c4ncc[nH]4)ncn3c2)c1Cl` [Compound 103, 5-chloro-N-[2-chloro-4-fluoro-3-[1-(1H-imidazol-2-yl)imidazo[1,5-a]pyridin-6-yl]phenyl]-2-methoxypyridine-3-sulfonamide], the pIC50 was > 7.30. With `COc1ncc(Cl)cc1S(=O)(=O)Nc1ccc(F)c(-c2ccc3c(-c4ncc[nH]4)ncn3c2F)c1F` [Compound 104, 5-chloro-N-[2,4-difluoro-3-[5-fluoro-1-(1H-imidazol-2-yl)imidazo[1,5-a]pyridin-6-yl]phenyl]-2-methoxypyridine-3-sulfonamide] the pIC50 was > 7.30. `COc1ncc(Cl)cc1S(=O)(=O)Nc1ccc(F)c(-c2ccc3c(-c4ccn[nH]4)ncn3c2F)c1F` [Compound 105, 5-chloro-N-[2,4-difluoro-3-[5-fluoro-1-(2H-pyrazol-3-yl)imidazo[1,5-a]pyridin-6-yl]phenyl]-2-methoxypyridine-3-sulfonamide] was tested, and the pIC50 was > 7.30. For `CNC(=O)c1ncn2cc(-c3c(F)ccc(NS(=O)(=O)c4cc(Cl)cnc4OC)c3Cl)ncc12` [Compound 106, 6-[2-chloro-3-(5-chloro-2-methoxypyridine-3-sulfonamido)-6-fluorophenyl]-N-methylimidazo[1,5-a]pyrazine-1-carboxamide], the pIC50 was > 7.30. In the case of `COc1ncc(F)cc1S(=O)(=O)Nc1ccc(F)c(-c2ccc3c(-c4ncc[nH]4)ncn3c2F)c1F` [Compound 107, N-[2,4-difluoro-3-[5-fluoro-1-(1H-imidazol-2-yl)imidazo[1,5-a]pyridin-6-yl]phenyl]-5-fluoro-2-methoxypyridine-3-sulfonamide], the pIC50 was > 7.30. In the case of `Cc1ncc(F)cc1S(=O)(=O)Nc1ccc(F)c(-c2ccc3c(-c4ncc[nH]4)ncn3c2F)c1F` [Compound 108, N-[2,4-difluoro-3-[5-fluoro-1-(1H-imidazol-2-yl)imidazo[1,5-a]pyridin-6-yl]phenyl]-5-fluoro-2-methylpyridine-3-sulfonamide], the pIC50 was > 7.30. In the case of `Cc1ncc(Cl)cc1S(=O)(=O)Nc1ccc(F)c(-c2ccc3c(-c4ncc[nH]4)ncn3c2F)c1F` [Compound 109, 5-chloro-N-[2,4-difluoro-3-[5-fluoro-1-(1H-imidazol-2-yl)imidazo[1,5-a]pyridine-6-yl]phenyl]-2-methylpyridine-3-sulfonamide], the pIC50 was > 7.30. `COc1ncc(Cl)cc1S(=O)(=O)Nc1ccc(F)c(-c2cn3cnc(-c4nc5ccccc5[nH]4)c3cn2)c1F` [Compound 110, N-[3-[1-(1H-1,3-benzodiazol-2-yl)imidazo[1,5-a]pyrazin-6-yl]-2,4-difluorophenyl]-5-chloro-2-methoxypyridine-3-sulfonamide] was tested, and the pIC50 was > 7.30. In the case of `COc1ncc(F)cc1S(=O)(=O)Nc1ccc(F)c(-c2cn3cnc(-c4nc5ccccc5[nH]4)c3cn2)c1F` [Compound 111, N-[3-[1-(1H-1,3-benzodiazol-2-yl)imidazo[1,5-a]pyrazin-6-yl]-2,4-difluorophenyl]-5-fluoro-2-methoxypyridine-3-sulfonamide], the pIC50 was > 7.30. `COc1ncc(C#N)cc1S(=O)(=O)Nc1ccc(F)c(-c2cn3cnc(-c4nc5ccccc5[nH]4)c3cn2)c1F` [Compound 112, N-[3-[1-(1H-1,3-benzodiazol-2-yl)imidazo[1,5-a]pyrazin-6-yl]-2,4-difluorophenyl]-5-cyano-2-methoxypyridine-3-sulfonamide] was tested, and the pIC50 was > 7.30.

— patent US20240083897A1, “GCN2 MODULATING COMPOUNDS AND USES THEREOF” (HiberCell, Inc., priority 2021, published 2024)
